The source of these data is US7022699B2, “Cyclohexenyl phenyl diazepines vasopressin and oxytocin receptor modulators” (Wyeth, priority 2001, dated 2006).

Usually melting point stands for the temperature of the solid-liquid transition. Usually IC50 stands for the concentration that inhibits the measured activity by half. A word on the inhibition: it is the drop in the measured response relative to a control, in per cent.

Data set [1] concerns the target T1, human vasopressin V1a receptor subtype (Homo sapiens, UniProt P37288).
T1 construct: host or cells: CHO cells, stably transfected (pZeoSV vector for the Thibonnier cells); membranes
Briefly: Vasopressin binding in CHO cell membranes expressing human vasopressin V1a subtype receptors ([3H]Manning ligand). Particulars: for inhibition at 0.1 µM: 100 nM, values without parentheses. The source says:
Vasopressin Binding in Chinese Hamster Ovary Cell Membranes Expressing Human Vasopressin V1a Subtype Receptors
Chinese hamster ovary cells (CHO cells) stably transfected with the human vasopressin V1a subtype receptors were either obtained from Biosignal Inc., 1744 rue Williams, Montreal, Quebec, Canada or obtained from M. Thibonnier, Case Western Reserve University School of Medicine, Cleveland, Ohio. A. Passaging and Amplification of Cells: CHO cells transfected with the human vasopressin V1a subtype receptors obtained from M. Thibonnier (pZeoSV vector) are allowed to grow to confluency (approx. >90%) in T-150 flasks under sterile conditions, in a cell culture medium of F-12 Nutrient Mixture (HAM) with L-glutamine (Gibco Cat. #11765-054) containing 15 mM HEPES (Gibco Cat. #15630-080), 1% antibiotic/antimycotic (add 5 mL 100×, Gibco Cat. #15240-062 per 500 mL F-12), 250 μg/mL Zeocin (add 1.25 mL of 100 mg/mL Invitrogen R-250-01 per 500 mL F-12) and 10% Fetal Bovine Serum (Qualified, heat inactivated, Gibco Cat. #16140-063). The medium is removed by aspiration and the cells are washed with 10 mL of Hank's Balanced Salt solution (Gibco Cat. #14175-095). The salt solution is removed by aspiration and the cells are trypsinized with 5 mL of trypsin-EDTA (0.05% trypsin, 0.53 mM EDTA-4Na, Gibco Cat. #25300-070) for 1 min. The trypsin is removed by aspiration and the cells dislodged by tapping. Cell Culture medium (eg, 30 mL for 1:30 split) is immediately added and mixed well to inactivate trypsin. 1 mL of detached cells is added to new culture flasks containing fresh cell culture medium (eg, into 25 mL per T-150 flask), and mixed gently. The cells are incubated at 37° C. in 5% CO2. The medium is changed at 3 to 4 days interval (or as appropriate). The cells grow to confluency (approx. >75%–95%) within 7–8 days. All steps are done under sterile conditions. B. Membrane Preparation: The cells are washed twice gently with Hank's Balanced Salt solution (e.g.,. use 10 mL per T-150 flask). The excess is removed and the cells are bathed for 15–30 min. in an enzyme-free Cell Dissociation Buffer (e.g. use 8 mL Hank's Based, Gibco Cat. #13150-016 per T-150 flask) until the cells are loosened. The contents are transferred to centrifuge tubes (50 mL size) kept in ice bath. All subsequent steps are done at 4° C. The tubes are centrifuged at 300×g for 15 min (1380 rpm on SORVAL, Model RT6000D, using rotor for 50 mL tubes). The supernatant is discarded and the cells suspended in homogeneizing buffer (10 mM Tris-HCl containing 0.25 M sucrose and 1 mM EDTA, pH 7.4) ensuring that the volume of the buffer is about ten times the volume of the cell pellet. The cells are pooled into a centrifuge tube (50 mL) and homogenized with Polytron at setting 6 for 10 sec. The homogenate is transferred into a Potter-Elvjehm homogenizer and homogenized with 3 strokes. The homogenate is centrifuged at 1500×g for 10 min at 4° C. (3100 rpm using SORVAL, model RT6000D, using rotor for 50 mL tubes). The pellet is discarded. The supernatant is centrifuged at 100,000×g for 60 min. at 4° C. (Beckman L8-80M ultracentrifuge; spin at 37,500 rpm with rotor type 70 Ti for 50 mL tubes; 38,000 rpm with type 80Ti for 15 mL tubes; or 35,800 rpm with rotor type 45Ti). The supernantant is discarded and the pellet suspended in 3 to 4 mL of Tris buffer (50 mM TRIS-HCl, pH 7.4). The protein content is estimated by the Bradford or Lowry method. The volume of the membrane suspension is adjusted with the membrane buffer (50 mM Tris-HCl containing 0.1% BSA and 0.1 mM PMSF) to give 3.0 mg/mL (or as appropriate) of protein. The membranes are aliquoted and stored at −70° C. C. […]

T1 sequence (P37288 whole entry): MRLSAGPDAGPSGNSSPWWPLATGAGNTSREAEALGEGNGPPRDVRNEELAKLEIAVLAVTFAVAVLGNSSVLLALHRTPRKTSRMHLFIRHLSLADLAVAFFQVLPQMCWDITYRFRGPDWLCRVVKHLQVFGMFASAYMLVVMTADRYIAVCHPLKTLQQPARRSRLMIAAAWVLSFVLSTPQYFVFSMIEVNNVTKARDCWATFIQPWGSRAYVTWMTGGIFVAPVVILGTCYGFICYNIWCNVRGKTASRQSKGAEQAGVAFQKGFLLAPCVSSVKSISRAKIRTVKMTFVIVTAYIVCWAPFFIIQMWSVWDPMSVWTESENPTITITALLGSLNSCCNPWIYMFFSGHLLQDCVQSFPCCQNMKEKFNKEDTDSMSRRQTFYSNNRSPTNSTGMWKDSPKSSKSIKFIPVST

For `CC1CCCC=C1c1ccc(C(=O)N2Cc3cccn3Cc3ccccc32)cc1` (stereo not drawn) [Example 16, (10,11-Dihydro-5H-pyrrolo[2,1-c][1,4]benzodiazepin-10-yl)-[4-(6-methyl-cyclohex-1-en-1-yl)-phenyl]-methanone], the melting point lay within 108 to 109 °C. The concentration for half-maximal inhibition (IC50) in data set [1] (values in parentheses) was found to be 77.8 nM.
Molecule `CC1(C)CCCC=C1c1ccc(C(=O)N2Cc3cccn3Cc3ccccc32)cc1` [Example 17, (10,11-Dihydro-5H-pyrrolo[2,1-c][1,4]benzodiazepin-10-yl)-[4-(6,6-dimethyl-cyclohex-1-en-1-yl)-phenyl]-methanone] yielded a melting point of 118 °C. Moreover, the inhibition at 0.1 µM in data set [1] stood at 51%.
The like results for `O=C(c1ccc(C2=CCCc3ccccc32)cc1)N1Cc2cccn2Cc2ccccc21` [Example 18, (10,11-Dihydro-5H-pyrrolo[2,1-c][1,4]benzodiazepin-10-yl)-[4-(3,4-dihydro-naphthalen-1-yl)-phenyl]-methanone] were, in that order, 166 °C and 51%.
The like results for `CC1=C(c2ccc(C(=O)N3Cc4cccn4Cc4ccccc43)cc2)C(C)CCC1` (stereo not drawn) [Example 19, (10,11-Dihydro-5H-pyrrolo[2,1-c][1,4]benzodiazepin-10-yl)-[4-(2,6-dimethyl-cyclohex-1-en-1-yl)-phenyl]-methanone] were, in that order, 153 to 154 °C and 23%.
On the same counts, the results for `CC1(C)C2CC=C(c3ccc(C(=O)N4Cc5cccn5Cc5ccccc54)cc3)C1C2` (stereo not drawn) [Example 22, (10,11-Dihydro-5H-pyrrolo[2,1-c][1,4]benzodiazepin-10-yl)-[4-(6,6-dimethyl-bicyclo[3.1.1]hept-2-en-2-yl)-phenyl]-methanone] are 118 to 119 °C and 13%.
For `CC1(C)C=C(c2ccc(C(=O)N3Cc4cccn4Cc4ccccc43)cc2)CC(C)(C)C1` [Example 23, (10,11-Dihydro-5H-pyrrolo[2,1-c][1,4]benzodiazepin-10-yl)-[4-(3,3,5,5-tetramethyl-cyclohex-1-en-1-yl)-phenyl]-methanone], the melting point is 142 to 143 °C. The inhibition at 0.1 µM in data set [1] was -10%.
In the case of `O=C1C=C(c2ccc(C(=O)N3Cc4cccn4Cc4ccccc43)cc2)CCC1` [Example 24, 3-[4-(10,11-Dihydro-5H-pyrrolo[2,1-c][1,4]benzodiazepine-10-carbonyl)-phenyl]-cyclohex-2-en-1-one], the melting point is 205 to 207 °C. In addition, the inhibition at 0.1 µM in data set [1] is 49%.
On the same counts, the results for `CC1=C(c2ccc(C(=O)N3Cc4cccn4Cc4ccccc43)cc2)CCCC1=O` [Example 26, 3-[4-(10,11-Dihydro-5H-pyrrolo[2,1-c][1,4]benzodiazepine-10-carbonyl)-phenyl]-2-methyl-cyclohex-2-en-1-one] are 95 to 97 °C and 27%.
As for `Cc1cc(C(=O)N2Cc3cccn3Cc3ccccc32)ccc1C1=CCCCC1C` (stereo not drawn) [Example 29, (10,11-Dihydro-5H-pyrrolo[2,1-c][1,4]benzodiazepin-10-yl)-[3-methyl-4-(6-methyl-cyclohex-1-en-1-yl)-phenyl]-methanone], the melting point lay within 132 to 133 °C. Further, in data set [1], the inhibition at 0.1 µM amounted to 27%.
The like results for `Cc1cc(C(=O)N2Cc3cccn3Cc3ccccc32)ccc1C1=CCCCC1(C)C` [Example 30, (10,11-Dihydro-5H-pyrrolo[2,1-c][1,4]benzodiazepin-10-yl)-[4-(6,6-dimethyl-cyclohex-1-en-1-yl)-3-methyl-phenyl]-methanone] were, in that order, 131 °C and 18%.
On the same counts, the results for `CC1=C(c2ccc(C(=O)N3Cc4cccn4Cc4ccccc43)cc2C)C(C)CCC1` (stereo not drawn) [Example 33, (10,11-Dihydro-5H-pyrrolo[2,1-c][1,4]benzodiazepin-10-yl)-[4-(2,6-dimethyl-cyclohex-1-en-1-yl)-3-methyl-phenyl]-methanone] are 133 to 135 °C and 6%.
On the same counts, the results for `Cc1cc(C(=O)N2Cc3cccn3Cc3ccccc32)ccc1C1=CCCCC1C(C)(C)C` (stereo not drawn) [Example 34, (10,11-Dihydro-5H-pyrrolo[2,1-c][1,4]benzodiazepin-10-yl)-[4-(6-tert-butyl-cyclohex-1-en-1-yl)-3-methyl-phenyl]-methanone] are 127 to 129 °C and -5%.
Turning to `Cc1cc(C(=O)N2Cc3cccn3Cc3ccccc32)ccc1C1=CCC2CCC1C2` (stereo not drawn) [Example 35, (10,11-Dihydro-5H-pyrrolo[2,1-c][1,4]benzodiazepin-10-yl)-(4-bicyclo[3.2.1]oct-2-en-2-yl-3-methyl-phenyl)-methanone], the melting point was 168 to 169 °C. In addition, in data set [1], the inhibition at 0.1 µM was 36%.
The like results for `Cc1cc(C(=O)N2Cc3cccn3Cc3ccccc32)ccc1C1=CCC2CC1C2(C)C` (stereo not drawn) [Example 36, (10,11-Dihydro-5H-pyrrolo[2,1-c][1,4]benzodiazepin-10-yl)-[4-(6,6-dimethyl-bicyclo[3.1.1]hept-2-en-2-yl)-3-methyl-phenyl]-methanone] were, in that order, 187 °C and 11%.
With `Cc1cc(C(=O)N2Cc3cccn3Cc3ccccc32)ccc1C1=CC(C)(C)CC(C)(C)C1` [Example 37, (10,11-Dihydro-5H-pyrrolo[2,1-c][1,4]benzodiazepin-10-yl)-[3-methyl-4-(3,3,5,5-tetramethyl-cyclohex-1-en-1-yl)-phenyl]-methanone], the melting point is 158 °C. The inhibition at 0.1 µM in data set [1] came out at 10%.
On the same counts, the results for `COc1cccc(C2=C(c3ccc(C(=O)N4Cc5cccn5Cc5ccccc54)cc3C)CCCC2)c1` [Example 38, (10,11-Dihydro-5H-pyrrolo[2,1-c][1,4]benzodiazepin-10-yl)-{4-[2-(3-methoxy-phenyl)-cyclohex-1-en-1-yl]-3-methyl-phenyl}-methanone] are 91 to 94 °C and 5%.
On the same counts, the results for `Cc1cc(C(=O)N2Cc3cccn3Cc3ccccc32)ccc1C1=CC(=O)CCC1` [Example 39, 3-[4-(10,11-Dihydro-5H-pyrrolo[2,1-c][1,4]benzodiazepine-10-carbonyl)-2-methyl-phenyl]-cyclohex-2-en-1-one] are 176 to 177 °C and 48%.
The molecule `CO[C@@H]1CCCC(c2ccc(C(=O)N3Cc4cccn4Cc4ccccc43)cc2C)=C1C` [Example 44, 10-{4-[(3R)-3-Methoxy-2-methylcyclohex-1-en-1-yl]-3-methylbenzoyl}-10,11-dihydro-5H-pyrrolo[2,1-c][1,4]benzodiazepine] registered a melting point of 127 to 128 °C. Besides, in data set [1], the inhibition at 0.1 µM amounted to 85%.
